{"source": "patent US20190093170A1", "about": "“USE OF TRANSLATIONAL PROFILING TO IDENTIFY TARGET MOLECULES FOR THERAPEUTIC TREATMENT” (THE REGENTS OF THE UNIVERSITY OF CALIFORNIA, priority 2013, published 2019)", "tested_on": "Pten^L/L prostate cancer mouse model", "assay": "Pharmacological treatment of Pten^L/L mice (preclinical trial; IHC, immunofluorescence, histology, MRI, lymph node metastasis)", "type": "in vivo", "conditions": "28 days, RAD001 10 mg/kg daily", "description": "Weight measurements were taken every 3 days to monitor for toxicity. For the 28-day study, mice were imaged via MRI at day 0 and day 28 in a 14-T GE MR scanner (GE Healthcare).\nWhole mouse prostates were removed from wild-type and Pten^L/L mice, microdissected, and frozen in liquid nitrogen. Frozen tissues were subsequently manually disassociated using a biopulverizer (Biospec) and additionally processed for protein and mRNA analysis as described above.\nProstates and lymph nodes were dissected from mice within 2 hr of the indicated treatment and fixed in 10% formalin overnight at 4° C. Tissues were subsequently dehydrated in ethanol (Sigma) at room temperature, mounted into paraffin blocks, and sectioned at 5 μm. Specimens were de-paraffinized and rehydrated using CitriSolv (Fisher) followed by serial ethanol washes. […] Sections were washed in distilled water followed by TBS washes. The sections were then incubated in 5% goat serum, 1% BSA in TBS for 1 hr at room temperature. Various primary antibodies were used, including those specific for keratin 5 (Covance), cytokeratin 8 (Abcam and Covance), YB1 (Abcam), vimentin (Abcam), MTA1 (Cell signaling), CD44 (BD Pharmingen), and the androgen receptor (Epitomics), which were diluted 1:50-1:500 in blocking solution and incubated on sections overnight at 4° C. Specimens were then washed in TBS and incubated with the appropriate Alexa 488 and 594 labeled secondary (Invitrogen) at 1:500 for 2 hr at room temperature, with the exception of YB1 which was incubated with biotinylated anti-rabbit secondary (Vector) followed by incubation with Alexa 594 labeled Streptavidin (Invitrogen). A final set of washes in TBS was completed at room temperature followed by mounting with DAPI Hardset Mounting Medium (Vector Lab). A Zeiss Spinning Disc confocal (Zeiss, CSU-X1) was used to image the sections at 40×-100×. Individual prostate cells were quantified for mean fluorescence intensity (m.f.i.) using the Axiovision (Zeiss, Release 4.8) densitometric tool.\nMouse lymph nodes were processed as described above and stained for CK8 and androgen receptor. Lymph nodes were imaged using a Zeiss AX10 microscope. Metastases were identified and areas were measured using the Axiovision (Zeiss, Release 4.8) measurement tool.\nImmunohistochemistry was performed as described above (see “Immunofluorescence”) with the exception that immediately after antigen […] and TBS washes, specimens were incubated in 3% hydrogen peroxide in TBS followed by TBS washes. The following primary antibodies were used: phospho-AKT^S473 (Cell Signaling), phospho-rpS6^S240/244 (Cell Signaling), phospho-4EBP1^T37/46 (Cell Signaling), phospho-histone H3 (Upstate), and cleaved caspase (Cell Signaling). […] The protein of interest was detected using DAB (Sigma). […]", "key": {"[1]": {"conditions": "ATP site inhibitor of mTOR 1 mg/kg daily"}}}
{"smiles": "CO[C@H]1C[C@@H]2CC[C@@H](C)[C@@](O)(O2)C(=O)C(=O)N2CCCC[C@H]2C(=O)O[C@H]([C@H](C)C[C@@H]2CC[C@@H](OCCO)[C@H](OC)C2)CC(=O)[C@H](C)/C=C(\\C)[C@@H](O)[C@@H](OC)C(=O)[C@H](C)C[C@H](C)/C=C/C=C/C=C/1C", "note": "[RAD001]", "values": [{"measurement": "4EBP1 and p70S6K1/2 phosphorylation", "setting": "[1]", "value": "only decreased p70S6K1/2 phosphorylation levels"}, {"measurement": "apoptosis (cleaved caspase 3)", "setting": "[1]", "value": "no significant effect"}, {"measurement": "proliferation (phospho-histone H3)", "setting": "[1]", "value": "limited decrease in cell proliferation"}, {"measurement": "regression of PIN lesions", "value": "only partial regression of PIN lesions"}]}
